# Measurements published in ChEMBL document CHEMBL1667732, “The diarylheptanoid (+)-aR,11S-myricanol and two flavones from bayberry (Myrica cerifera) destabilize the microtubule-associated protein tau” (J Nat Prod, 2011).
# Activity calls are given as the source filed them. The rule behind the calls is not given here.
# Legend:
# [1] = species: Mus musculus; experiment: Destabilization of microtubule-associated protein tau protein in mouse brain slice assessed as reduction in tau protein level at 50 to 250 uM; type: tissue-based
# [2] = Cytotoxicity against human HeLaC3 cells by LDH release assay; type: cell-based; conditions: hela c3
# [3] = Cytotoxicity against human IMR32 cells by LDH release assay; type: cell-based; conditions: imr-32
# [4] = system: HeLa-C3; experiment: Destabilization of microtubule-associated protein tau protein in human HeLa-C3 cells assessed as reduction in tau protein level at 50 to 250 uM; type: cell-based
# [5] = system: IMR-32; experiment: Destabilization of microtubule-associated protein tau protein in human IMR32 cells assessed as reduction in tau protein level at 50 to 250 uM; type: cell-based
smiles,measurement,setting,value
COc1c2cc(c(O)c1OC)CCCC[C@H](O)CCc1ccc(O)c-2c1,Activity,[1],Active
same,Activity,[2],Non-toxic
same,Activity,[3],Non-toxic
same,Activity,[4],Active
same,Activity,[5],Active
